Experimental data from US12268689B2, “Eutectic form A of Elagolix and pyrimethamine, preparation method therefor and use thereof” (Shenzhen Rentai Pharmatech Ltd., priority 2019, dated 2025).
“Also recorded” adds a separate entry of the source.

Assays:
Format in all cases: physicochemical
[1] = High temperature stability test (60° C., 30 days; HPLC purity and XRPD)
Procedure: (§1) High temperature stability: samples of a raw drug of Elagolix sodium and an eutectic form A formed by Elagolix and pyrimethamine (prepared in Comparative example 1 and Example 1, respectively) were taken and separately placed at 60° C. for 30 days, sampling was conducted at fixed time points on day 5, day 10 and day 30, respectively to determine the XRPD pattern of the eutectic form A, and the content of the raw drug of Elagolix sodium and the eutectic form A, and the determined XRPD pattern of the eutectic form A, and the determined content of the raw drug of Elagolix sodium and the eutectic form A were compared with those on day 0.
(§2) The specific stability test method can refer to the method in Appendix XIC of Part II of Chinese Pharmacopoeia (2015 Edition); and the purity was detected by an HPLC method, and can be determined by an external standard method with reference to the method in Appendix VD of Chinese Pharmacopoeia (2015 Edition) by using the sample on day 0 as a control.
(§3) Operating Conditions for HPLC
(§4) • Instrument: high performance liquid chromatograph (model: Agilent Technologies 1260) • Chromatographic column: shiseido CAPCELL PAK C18 column (5 μm, 250 mm×4.6 mm) Mobile Phase Composition and Gradient Elution Procedure:
(§5) • Detection wavelength: 254 nm • Flow rate: 1 mL/min • Injection volume: 10 μL • Column temperature: 30° C.

[2] = Light stability test (25° C., 4500 Lux, 30 days; HPLC purity and XRPD); conditions: light conditions
Procedure: Light stability: samples of a raw drug of Elagolix sodium and an eutectic form A formed by Elagolix and pyrimethamine (prepared in Comparative example 1 and Example 1, respectively) were taken and separately placed at 25° C. under light conditions of 4500 Lux for 30 days, sampling was conducted at fixed time points on day 5, day 10 and day 30, respectively to determine the XRPD pattern of the eutectic form A, and the content of Elagolix in the raw drug of Elagolix sodium and the eutectic form A, and the determined XRPD pattern of the eutectic form A, and the determined content of Elagolix in the raw drug of Elagolix sodium and the eutectic form A were compared with those on day 0.
as §2, §3
• Instrument: high performance liquid chromatograph (model: Agilent Technologies 1260) • Chromatographic column: shiseido CAPCELL PAK C18 column (5 μm, 250 mm×4.6 mm) Mobile Phase Composition and Gradient Elution Procedure: […]

[3] = High humidity stability test (25° C., 92.5% RH, 30 days; HPLC purity and XRPD)
Procedure: as §1, with “humidity” for “temperature”, “25°” for “60°”, “C. at 92.5% RH” for “C.”
as §2, §3, §4, §5

High temperature stability (in words) [1]: not good; also recorded: unstable
Light stability (in words) [2]: not good; also recorded: unstable
High humidity stability (in words) [3]: not good; also recorded: unstable
SMILES: COc1cccc(-c2c(C)n(Cc3c(F)cccc3C(F)(F)F)c(=O)n(C[C@H](NCCCC(=O)O)c3ccccc3)c2=O)c1F [Elagolix sodium]
